Data published in patent publication US20240358668A1, “METHODS AND CO[…] AM[…] CARD[…] USING (R)-2-AMINO-3-PH[…]” (AXSOME THERAPEUTICS, INC., priority 2021, published 2024).

Test system: participants with narcolepsy or OSA
Test: 1-year OLE study: blood pressure, parent study baseline to OLE week 40
Format: in vivo, human
Details: Weight loss <5% at Week 40
Procedure: A 1-year open-label extension (OLE) study was performed with 374 participants to examined whether clinically significant weight loss (≥5%) in this population had favorable effects on biomarkers of cardiovascular risk compared to no such weight loss. The study measured changes in weight and BP (parent study baseline to OLE week 40) and clinical laboratory assessments (OLE baseline to week 40) in participants with narcolepsy (n=124) or OSA (n=250) who received solriamfetol at doses of 75, 150, or 300 mg/d.
We evaluated changes in weight and BP (parent study baseline to OLE week 40) and clinical laboratory assessments (OLE baseline to week 40) in participants with narcolepsy (n=124) or OSA (n=250) from the OLE study.

[1] = all doses, listed as solriamfetol

With NC(=O)OC[C@H](N)Cc1ccccc1 [Solriamfetol, (R)-2-amino-3-phenylpropyl carbamate] the “DBP Change - Wk 40, Mean (SD)” value (75 mg/d) was 0.2 (9.5) mmHg, the “DBP Change - Wk 40, Median” value (75 mg/d) was 0.0 mmHg and the “DBP maximum changes from baseline to week 40: Decrease ≥10%” value (shortened to “DBP maximum changes … Decrease ≥10%”) (75 mg/d) was 3 (14.3) n (%). The “DBP maximum changes from baseline to week 40: Decrease ≥20%” value (“DBP maximum changes … Decrease ≥20%” below) (75 mg/d) was 0 n (%), the “DBP maximum changes from baseline to week 40: Decrease ≥30%” value (from here on “DBP maximum changes … Decrease ≥30%”) (75 mg/d) was 0 n (%) and the “DBP maximum changes from baseline to week 40: Increase ≥10%” value (shortened to “DBP maximum changes … Increase ≥10%”) (75 mg/d) was 4 (19.0) n (%). The “DBP maximum changes from baseline to week 40: Increase ≥20%” value (“DBP maximum changes … Increase ≥20%” below) (75 mg/d) was 0 n (%), the “DBP maximum changes from baseline to week 40: Increase ≥30%” value (from here on “DBP maximum changes … Increase ≥30%”) (75 mg/d) was 0 n (%) and the “SBP Change - Wk 40, Mean (SD)” value (75 mg/d) was −3.0 (12.3) mmHg. The “SBP Change - Wk 40, Median” value (75 mg/d) was 0.50 mmHg, the “SBP maximum changes from baseline to week 40: Decrease ≥10%” value (shortened to “SBP maximum changes … Decrease ≥10%”) (75 mg/d) was 6 (28.6) n (%) and the “SBP maximum changes from baseline to week 40: Decrease ≥20%” value (“SBP maximum changes … Decrease ≥20%” below) (75 mg/d) was 0 n (%). The “SBP maximum changes from baseline to week 40: Decrease ≥30%” value (from here on “SBP maximum changes … Decrease ≥30%”) (75 mg/d) was 0 n (%), the “SBP maximum changes from baseline to week 40: Increase ≥10%” value (shortened to “SBP maximum changes … Increase ≥10%”) (75 mg/d) was 5 (23.8) n (%) and the “SBP maximum changes from baseline to week 40: Increase ≥20%” value (“SBP maximum changes … Increase ≥20%” below) (75 mg/d) was 0 n (%). For the same compound, the “SBP maximum changes from baseline to week 40: Increase ≥30%” value (from here on “SBP maximum changes … Increase ≥30%”) (75 mg/d) was 0 n (%), the “DBP Change - Wk 40, Mean (SD)” value (150 mg/d) was 2.3 (7.9) mmHg and the “DBP Change - Wk 40, Median” value (150 mg/d) was 2.3 mmHg. For the same compound, the “DBP maximum changes … Decrease ≥10%” value (150 mg/d) was 4 (3.8) n (%), the “DBP maximum changes … Decrease ≥20%” value (150 mg/d) was 1 (1.0) n (%) and the “DBP maximum changes … Decrease ≥30%” value (150 mg/d) was 0 n (%). The “DBP maximum changes … Increase ≥10%” value (150 mg/d) was 16 (15.2) n (%), the “DBP maximum changes … Increase ≥20%” value (150 mg/d) was 3 (2.9) n (%) and the “DBP maximum changes … Increase ≥30%” value (150 mg/d) was 0 n (%). For the same compound, the “SBP Change - Wk 40, Mean (SD)” value (150 mg/d) was 2.30 (12.1) mmHg, the “SBP Change - Wk 40, Median” value (150 mg/d) was 2.00 mmHg and the “SBP maximum changes … Decrease ≥10%” value (150 mg/d) was 15 (14.3) n (%). The “SBP maximum changes … Decrease ≥20%” value (150 mg/d) was 4 (3.8) n (%), the “SBP maximum changes … Decrease ≥30%” value (150 mg/d) was 0 n (%) and the “SBP maximum changes … Increase ≥10%” value (150 mg/d) was 26 (24.8) n (%). The “SBP maximum changes … Increase ≥20%” value (150 mg/d) was 7 (6.7) n (%), the “SBP maximum changes … Increase ≥30%” value (150 mg/d) was 2 (1.9) n (%) and the “DBP Change - Wk 40, Mean (SD)” value (300 mg/d) was 0.6 (9.1) mmHg. The “DBP Change - Wk 40, Median” value (300 mg/d) was 1.5 mmHg, the “DBP maximum changes … Decrease ≥10%” value (300 mg/d) was 20 (13.2) n (%) and the “DBP maximum changes … Decrease ≥20%” value (300 mg/d) was 5 (3.3) n (%). The “DBP maximum changes … Decrease ≥30%” value (300 mg/d) was 0 n (%), the “DBP maximum changes … Increase ≥10%” value (300 mg/d) was 21 (13.8) n (%) and the “DBP maximum changes … Increase ≥20%” value (300 mg/d) was 2 (1.3) n (%). For the same compound, the “DBP maximum changes … Increase ≥30%” value (300 mg/d) was 0 n (%), the “SBP Change - Wk 40, Mean (SD)” value (300 mg/d) was −0.37 (12.7) mmHg and the “SBP Change - Wk 40, Median” value (300 mg/d) was 0.17 mmHg. The “SBP maximum changes … Decrease ≥10%” value (300 mg/d) was 36 (23.7) n (%), the “SBP maximum changes … Decrease ≥20%” value (300 mg/d) was 10 (6.6) n (%) and the “SBP maximum changes … Decrease ≥30%” value (300 mg/d) was 2 (1.3) n (%). For the same compound, the “SBP maximum changes … Increase ≥10%” value (300 mg/d) was 33 (21.7) n (%), the “SBP maximum changes … Increase ≥20%” value (300 mg/d) was 8 (5.3) n (%) and the “SBP maximum changes … Increase ≥30%” value (300 mg/d) was 0 n (%). For the same compound, the “DBP Change - Wk 40, Median” value (all doses) was 1.4 mmHg, the “DBP maximum changes … Decrease ≥10%” value (all doses) was 27 (9.7) n (%) and the “DBP maximum changes … Decrease ≥20%” value (all doses) was 6 (2.2) n (%). For the same compound, the “DBP maximum changes … Decrease ≥30%” value (all doses) was 0 n (%), the “DBP maximum changes … Increase ≥10%” value (all doses) was 41 (14.7) n (%) and the “DBP maximum changes … Increase ≥20%” value (all doses) was 5 (1.8) n (%). For the same compound, the “DBP maximum changes … Increase ≥30%” value (all doses) was 0 n (%), the “SBP Change - Wk 40, Median” value (all doses) was 0.50 mmHg and the “SBP maximum changes … Decrease ≥10%” value (all doses) was 57 (20.5) n (%). For the same compound, the “SBP maximum changes … Decrease ≥20%” value (all doses) was 14 (5.0) n (%), the “SBP maximum changes … Decrease ≥30%” value (all doses) was 2 (0.7) n (%) and the “SBP maximum changes … Increase ≥10%” value (all doses) was 64 (23.0) n (%). For the same compound, the “SBP maximum changes … Increase ≥20%” value (all doses) was 15 (5.4) n (%), the “SBP maximum changes … Increase ≥30%” value (all doses) was 2 (0.7) n (%) and the “DBP Change - Wk 40, Mean (SD)” value (all doses, listed as Solri) was 1.2 (8.7) mmHg. For the same compound, the “SBP Change - Wk 40, Mean (SD)” value (all doses, listed as Solri) was 0.65 (12.5) mmHg, the “DBP Change - Wk 40, Mean (SD)” value [1] was 1.2±8.7 mmHg and the “SBP Change - Wk 40, Mean (SD)” value [1] was 0.65±12.5 mmHg.
